The test system of one assay is GVHD mouse model. As to the kind of experiment: Allogeneic immune response (GVHD) mouse model: survival, body weight, GVHD clinical score, large intestine histology. The assay is classed as in vivo. Here is the method: 6-8 week-old C57BL/6 (H-2kb) mouse and BALB/c (H-2kd) mouse which have different MHC class from each other were purchased from OrientBio Co., Ltd. After passing the regulation of the management committee of the Department of Laboratory Animal, The Catholic University of Korea, the mice were used under its care. A recipient mouse BALB/c (H-2kd) was irradiated with systemic radiation at 800 cGy. Within 24 hours, bone marrow 5×10^6 cells and spleen 5×10^6 cells isolated from a donor mouse C57BL/6 […] were transplanted into the allogeneic recipient mouse intravenously to induce a graft-versus-host rejection reaction model. The bone marrow-transplanted mouse was observed and evaluation was made of the following: weight, pose, activity, hair condition and skin density with evaluation criteria on the total ten-point scale, two points per each item (Table 1).
4 μm of serial sections were obtained from the paraffin-embedded tissue, treated with xylene three times to remove paraffin, and then hydrated stepwise in 95%, 90% and 70% ethanol. After removing endogenous peroxidase in 0.5% hydrogen peroxide, the specimen was treated with normal goat serum for 30 minutes and then reacted with primary antibody which was diluted with 3% bovine serum albumin (BSA) in PBS according to the manufacturer's instruction for 1 hour. After primary antibody reaction to the expressed proteins directed to genes showing the difference of expression in the above study, the specimen was washed with Tris-buffered saline (TBS) three times, reacted with 5 μg/ml biotinylated anti-mouse/anti-rabbit IgG diluted in 3% BSA for 30 minutes and washed with TBS three times. The specimen was kept in 3 μg/ml horseradish peroxidase streptoavidin for 30 minutes, color development was carried out by the use of DAB and hydrogen peroxide, and counter staining was carried out with Meyer's hematoxylin or 1% methyl green. […]

In a further assay the test system is HMGB1. The assay can be described thus: Real-time PCR of HMGB1 expression in spleen cells of GVHD mice. Type of assay: in vivo. The note with it: GVHD mouse spleen cells, 7th and 14th day, time-dependent, vs control group. The method, then: Total RNA was extracted from the cells by the use of TRIzol reagent. 1 μg of RNA was reacted with AMV reverse transcriptase and random hexamer at 45° C. for 1 hour to synthesize cDNA. Real-time PCR was carried out by the use of a mixture in which 1 μg of cDNA as a template, primer S, primer AS and distilled water were mixed, and SYBR Green. The PCR was carried out by the use of I-IMGB 1 (5′-GATGGGCAAAGGAGATCCTAAG-3′ and 5′-TCACTTTTTTGTCTCCCCTTTGGG-3′) with the condition of 35 cycles of at 95° C. for 15 seconds, at 60° C. for 10 seconds and at 72° C. for 30 seconds. Fluorescent data were measured by the use of Rad CFX96 Real-Time System (Bio-Rad Laboratories).
It has been well known that the release of HMGB1 has a possibility of the function for regulating inflammation and immunity. Therefore, in this study the animals of the test group in which GVHD mouse model was treated with the compound of the present invention and the control model was sacrificed, RNA was extracted from spleen cells, and then cDNA was synthesized and a comparative study on the expression of HMGB1 was carried out by real-time PCR.
For orientation: Quantitative PCR measures a nucleic acid by following its amplification.

The test system of assay [1] is CD4+CD25+Foxp3+ regulatory T cells. The assay can be described thus: Increase of regulatory T cells in in vivo GVHD mouse model (Example 10). Conditions: intravenous, four times a week for two weeks, spleen flow cytometry. The method, then:
6-8 week-old C57BL/6 (H-2kb) mouse and BALB/c (H-2kd) mouse which have different MHC class from each other were used. A recipient mouse BALB/c (H-2kd) was irradiated with systemic radiation at 8 Gy. Within 24 hours, bone marrow 5×10^6 cells and spleen 5×10^6 cells isolated from a donor mouse C57BL/6 […] were transplanted into the recipient mouse intravenously to induce graft-versus-host rejection reaction model (GVHD model). Compound A was intravenously injected into the GVHD model four times a week for two weeks. Mice were sacrificed, single-cell isolation was carried out, and the function of immune regulation in the spleen was investigated via flow cytometry. As a result, it was confirmed that in the group in which Compound A was administered CD4^+CD25^+Foxp3^+ regulatory T cells were increased.

Assay [2] concerns CD4+ T cells isolated from the spleen cells of C57BL/6. As to the kind of experiment: Differentiation into regulatory T cells in allogeneic immune cells in vitro. Type of assay: cell-based, mouse. The note with it: C57BL/6 CD4+ T cells with irradiated BALBc APCs; 5 days; various concentrations. The method, then:
1×10^6 CD4^+ T cells isolated from the spleen cells of C57BL/6 and BALBc antigen-presenting cells (APCs) irradiated at 20 Gy were added to a 48-well plate and incubated at 37° C. for 5 days. The incubation was carried out under the condition that allogeneic immune response by antigen-presenting cells is induced to the spleen cells, and the treatment with Compound A at various concentrations before incubation was carried out for comparative analysis. The cells were harvested after 5-day incubation, and for flow cytometry anti-mouse CD4 PerCP, CD25 APC and FoxP3 PE fluorescence-labeled antibodies were added thereto and reacted at 4° C. for 30 minutes. After washing with PBS, the measurement was carried out with a flow cytometer (FACSCalibur™).

In assay [3] the test system is CD4+CD25+Foxp3+ regulatory T cells. As to the kind of experiment: Flow cytometry of spleen cells of GVHD mice (regulatory T cells, CD4+IL-4, CD4+IFN-γ). The assay is classed as in vivo. The note with it: GVHD mouse spleen. Here is the method:
Mice were divided into a GVHD group in which (tetrahydropyran-4-yl)-[2-phenyl-5-(1,1-dioxo-thiomorpholin-4-yl)methyl-1H-indol-7-yl]amine (LG Life Sciences Ltd., Daejeon, Korea, hereinafter referred to as “Compound A”) was treated as a test group and a GVHD group in which Compound A was not treated as a control group. The spleens of each group were isolated and single-cell isolation was then carried out. The expression of CD4+CD25+Foxp3+, which is the phenotype of regulatory T cell, and CD4+IFN-γ cells and CD4+IL-4 cells were analyzed by the use of fluorescent monoclonal antibodies and a flow cytometer.
The present inventors found out that in GVHD mouse model, immune transplant rejection was decreased, the production of ROS and HMGB1, and cellular necrosis in tissues were suppressed by the compound of the present invention, so that they intended to observe the possibility of regulating immune response in immune disease animal model. Accordingly, mice of the test group in which the compound of the present invention was treated and the control group were sacrificed, their spleens were isolated, single-cell isolation was carried out, and the function of immune regulation was searched via flow cytometry. As a result, in the group in which the compound of the present invention was treated CD4+CD25+Foxp3+ immune regulatory cells (regulatory T cells) were increased 6 times or more, as compared with the control group. […] In GVHD model, after irradiation of high-dose radiation the transplanted T cells of the donor are activated and proliferated by antigen-presenting cells of the host to secrete IFN-γ which is known as a representative GVHD causing cytokine. […] Therefore, it can be known that the compound of the present invention can suppress immune response by suppressing the activation of the transplanted T cells.
(In general: A flow cytometer gives signals particle by particle.)

Assay [4] relates to reactive oxygen species (ROS). As to the kind of experiment: Measurement of reactive oxygen species (ROS) in spleen cells of GVHD mice. The assay is classed as in vivo. The note with it: GVHD mouse spleen cells; 7th and 14th day; dose- and time-dependent; vs control group. Here is the method: Animals of each group were sacrificed, and their spleens were isolated. After single-cell isolation, the obtained cells were washed with phosphate-buffered saline (PBS) twice. The reaction with 3 μM carboxy-H2DCFDA reagent was carried out at 37° C. for 10 minutes. After washing with PBS, the analysis was carried out with a flow cytometer at 540 nm.
Accordingly, the present inventors observed immune response by oxidative stress via GVHD mouse model.

For assay [5], the system named is CD4+ T cells isolated from mouse spleen cells. The assay can be described thus: In vitro differentiation of CD4+ T cells into regulatory T cells (aCD3, aCD28, TGF-beta). Type of assay: cell-based. The method, then: Experimentation for investigating the effect of the compound of the present invention on the differentiation of lymphocyte Th cells was carried out. 5×10^5 CD4+ T cells isolated from mouse spleen cells were dispensed into a 24-well plate coated with 1 μg/ml of anti-CD3 (aCD3), and then treated with 1 μg/ml of […] (aCD28) and 5 ng/ml of TGF-beta to induce the differentiation into regulatory T cells for 3 days. Before the differentiation into regulatory T cells, the compound (tetrahydropyran-4-yl)-[2-phenyl-5-(1,1-dioxo-thiomorpholin-4-yl)methyl-1H-indol-7-yl]amine (hereinafter referred to as “Compound A”) (LG Life Sciences Ltd., Daejeon, Korea) of the present invention was treated with the concentration of 40 μM and 80 μM. For flow cytometry, anti-mouse CD4 PerCP, CD25 APC and FoxP3 PE fluorescence-labeled antibodies were added thereto and reacted at 4° C. for 30 minutes. After washing with PBS, the measurement was carried out with a flow cytometer (FACSCalibur™)
In the course that 5×10^5 CD4^+ T cells isolated from mouse spleen cells were dispensed into a 24-well plate coated with 1 μg/ml of anti-CD3 (aCD3), and then treated with 1 μg/ml of […] (aCD28) and 5 ng/ml of TGF-beta to induce the differentiation into regulatory T cells for 3 days, the groups were divided into (1) 40 μM or 80 μM of Compound A single-treated group, (2) 0.1 μM of retinoic acid (RA) single-treated group, (3) 1 μM of retinal treated group, (4) 0.1 μM of RA and 40 μM or 80 μM of Compound A treated group, and (5) 1 μM of retinal and 40 μM or 80 μM of Compound A treated group, and the effect on the differentiation into regulatory T cells of each group was then compared.

Bounds are passed on as bounds.

Consider `O=S1(=O)CCN(Cc2cc(NC3CCOCC3)c3[nH]c(-c4ccccc4)cc3c2)CC1` [Compound A, (tetrahydropyran-4-yl)-[2-phenyl-5-(1,1-dioxo-thiomorpholin-4-yl)methyl-1H-indol-7-yl]amine], for which, in the assay on GVHD mouse model (0.3 or 1 mg/kg (FIG. 2), compared with non-treated group), the survival rate entry is listed as “considerably increased”. Besides, in the assay on GVHD mouse model (FIGS. 1 and 2), the body weight entry is recorded as “significant results” and the “graft-versus-host reaction (GVHD clinical score)” value is “significant results”. Moreover, in the assay with HMGB1, the “release (expression) of HMGB1” value is reported as “significantly suppressed”. Besides, the “CD4+CD25+Foxp3+ regulatory T cells” value in assay [1] is “increased”. Moreover, in assay [2], the “regulatory T cells” value is on record as “increased according to the concentration of Compound A”. For the same molecule, the “increase of CD4+CD25+Foxp3+ immune regulatory cells (regulatory T cells)” value in assay [3] (compared with control group) is listed as not below 6 times. In assay [3] (vs control group), the “CD4+IFN-γ” value is “decreased by more than half” and the “CD4+IL-4 cells” value is “increased”. Besides, the “generation ratio of reactive oxygen species in cells” value in assay [4] is reported as “significantly suppressed”. For the same molecule, in assay [5] (CD4+ T cells with aCD3, aCD28, TGF-beta, 40 μM and 80 μM), the “differentiation into regulatory T cells” value is “increased in a Compound A concentration-dependent manner”. Besides, the “expression of Foxp3+” value in assay [5] (CD4+ T cells with aCD3, aCD28, TGF-beta, 40 μM and 80 μM, 3 days, vs control without Compound A) is “nearly doubled”. For the same molecule, the “expression of Foxp3+ (alone or in combination)” value in assay [5] (aCD3, aCD28, TGF-beta, Compound A 40 or 80 μM, RA 0.1 μM, retinal 1 μM) is recorded as “increased to a similar extent to the case of treating retinal or RA”.

The values above are taken from patent US9867832B2, “Pharmaceutical composition for inhibiting immune response through inducing differentiation into regulator T cells and promoting proliferation of regulator T cells” (LG CHEM, LTD., priority 2013, dated 2018).
